# Laboratory results as given in PubChem BioAssay (NCI).
#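 48-hour exposure; five concentrations; linearly interpolated endpoints. GI50 is the concentration that inhibits growth by half. TGI marks complete inhibition of growth.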
# Key:
# Test in all cases: NCI anticancer screen, dose series, 48 h
# CCRF-CEM leukemia = test system: CCRF-CEM leukemia
# IGROV1 ovarian = test system: IGROV1 ovarian
# SF-295 CNS = test system: SF-295 CNS
# MALME-3M melanoma = test system: MALME-3M melanoma
# TK-10 renal = test system: TK-10 renal
# COLO 205 colon = test system: COLO 205 colon
# UACC-257 melanoma = test system: UACC-257 melanoma
# HL-60(TB) leukemia = test system: HL-60(TB) leukemia
# BT-549 breast = test system: BT-549 breast
# OVCAR-4 ovarian = test system: OVCAR-4 ovarian
# UACC-62 melanoma = test system: UACC-62 melanoma
# OVCAR-5 ovarian = test system: OVCAR-5 ovarian
# UO-31 renal = test system: UO-31 renal
# PC-3 prostate = test system: PC-3 prostate
# A498 renal = test system: A498 renal
# EKVX NSCLC = test system: EKVX NSCLC
# ACHN renal = test system: ACHN renal
# HS 578T breast = test system: HS 578T breast
# SF-539 CNS = test system: SF-539 CNS
# NCI/ADR-RES ovarian = test system: NCI/ADR-RES ovarian
# NCI-H23 lung = test system: NCI-H23 lung
# KM12 colon = test system: KM12 colon
# 786-0 renal = test system: 786-0 renal
# SN12C renal = test system: SN12C renal
# NCI-H226 lung = test system: NCI-H226 lung
# DU-145 prostate = test system: DU-145 prostate
# HCT-15 colon = test system: HCT-15 colon
# HOP-62 NSCLC = test system: HOP-62 NSCLC
# SNB-75 CNS = test system: SNB-75 CNS
# NCI-H522 lung = test system: NCI-H522 lung
# MDA-MB-468 breast = test system: MDA-MB-468 breast
# MDA-MB-435 = test system: MDA-MB-435
# HCC-2998 colon = test system: HCC-2998 colon
# SK-OV-3 ovarian = test system: SK-OV-3 ovarian
# HT29 colon = test system: HT29 colon
# SK-MEL-5 melanoma = test system: SK-MEL-5 melanoma
# OVCAR-8 ovarian = test system: OVCAR-8 ovarian
# CAKI-1 renal = test system: CAKI-1 renal
# SF-268 CNS = test system: SF-268 CNS
# SK-MEL-28 melanoma = test system: SK-MEL-28 melanoma
# MDA-MB-231 breast = test system: MDA-MB-231 breast
# OVCAR-3 ovarian = test system: OVCAR-3 ovarian
# LOX IMVI melanoma = test system: LOX IMVI melanoma
# RXF 393 renal = test system: RXF 393 renal
# SK-MEL-2 melanoma = test system: SK-MEL-2 melanoma
# HOP-92 NSCLC = test system: HOP-92 NSCLC
# SNB-19 CNS = test system: SNB-19 CNS
compound,measurement,setting,value
Cn1cc(/C=N/Nc2ccnc3cc(Cl)ccc23)c2ccccc21,GI50,CCRF-CEM leukemia,281 nM
same,TGI,CCRF-CEM leukemia,799 nM
same,GI50,IGROV1 ovarian,1410 nM
same,TGI,IGROV1 ovarian,2820 nM
same,GI50,SF-295 CNS,1230 nM
same,TGI,SF-295 CNS,2530 nM
same,GI50,MALME-3M melanoma,1580 nM
same,TGI,MALME-3M melanoma,3020 nM
same,GI50,TK-10 renal,2520 nM
same,TGI,TK-10 renal,4040 nM
same,GI50,COLO 205 colon,1210 nM
same,TGI,COLO 205 colon,2660 nM
same,GI50,UACC-257 melanoma,1550 nM
same,TGI,UACC-257 melanoma,2970 nM
same,GI50,HL-60(TB) leukemia,205 nM
same,TGI,HL-60(TB) leukemia,466 nM
same,GI50,BT-549 breast,1620 nM
same,TGI,BT-549 breast,3110 nM
same,GI50,OVCAR-4 ovarian,531 nM
same,TGI,OVCAR-4 ovarian,1200 nM
same,GI50,UACC-62 melanoma,1540 nM
same,TGI,UACC-62 melanoma,2970 nM
same,GI50,OVCAR-5 ovarian,1680 nM
same,TGI,OVCAR-5 ovarian,3060 nM
same,GI50,UO-31 renal,1240 nM
same,TGI,UO-31 renal,2520 nM
same,GI50,PC-3 prostate,1150 nM
same,TGI,PC-3 prostate,2670 nM
same,GI50,A498 renal,1970 nM
same,TGI,A498 renal,3500 nM
same,GI50,EKVX NSCLC,1260 nM
same,TGI,EKVX NSCLC,2580 nM
same,GI50,ACHN renal,1370 nM
same,TGI,ACHN renal,2670 nM
same,GI50,HS 578T breast,1480 nM
same,TGI,HS 578T breast,3490 nM
same,GI50,SF-539 CNS,181 nM
same,TGI,SF-539 CNS,342 nM
same,GI50,NCI/ADR-RES ovarian,1040 nM
same,TGI,NCI/ADR-RES ovarian,2480 nM
same,GI50,NCI-H23 lung,1210 nM
same,TGI,NCI-H23 lung,2520 nM
same,GI50,KM12 colon,1650 nM
same,TGI,KM12 colon,3150 nM
same,GI50,786-0 renal,274 nM
same,TGI,786-0 renal,717 nM
same,GI50,SN12C renal,1520 nM
same,TGI,SN12C renal,2920 nM
same,GI50,NCI-H226 lung,1500 nM
same,TGI,NCI-H226 lung,3250 nM
same,GI50,DU-145 prostate,978 nM
same,TGI,DU-145 prostate,2400 nM
same,GI50,HCT-15 colon,293 nM
same,TGI,HCT-15 colon,823 nM
same,GI50,HOP-62 NSCLC,1520 nM
same,TGI,HOP-62 NSCLC,3130 nM
same,GI50,SNB-75 CNS,639 nM
same,TGI,SNB-75 CNS,2180 nM
same,GI50,NCI-H522 lung,1320 nM
same,TGI,NCI-H522 lung,2750 nM
same,GI50,MDA-MB-468 breast,239 nM
same,TGI,MDA-MB-468 breast,563 nM
same,GI50,MDA-MB-435,609 nM
same,TGI,MDA-MB-435,1910 nM
same,GI50,HCC-2998 colon,669 nM
same,TGI,HCC-2998 colon,1950 nM
same,GI50,SK-OV-3 ovarian,1390 nM
same,TGI,SK-OV-3 ovarian,2900 nM
same,GI50,HT29 colon,185 nM
same,TGI,HT29 colon,338 nM
same,GI50,SK-MEL-5 melanoma,1450 nM
same,TGI,SK-MEL-5 melanoma,2770 nM
same,GI50,OVCAR-8 ovarian,1630 nM
same,TGI,OVCAR-8 ovarian,3290 nM
same,GI50,CAKI-1 renal,1300 nM
same,TGI,CAKI-1 renal,2650 nM
same,GI50,SF-268 CNS,1720 nM
same,TGI,SF-268 CNS,3590 nM
same,GI50,SK-MEL-28 melanoma,1700 nM
same,TGI,SK-MEL-28 melanoma,3090 nM
same,GI50,MDA-MB-231 breast,202 nM
same,TGI,MDA-MB-231 breast,488 nM
same,GI50,OVCAR-3 ovarian,206 nM
same,TGI,OVCAR-3 ovarian,468 nM
same,GI50,LOX IMVI melanoma,175 nM
same,TGI,LOX IMVI melanoma,323 nM
same,GI50,RXF 393 renal,1530 nM
same,TGI,RXF 393 renal,3000 nM
same,GI50,SK-MEL-2 melanoma,1600 nM
same,TGI,SK-MEL-2 melanoma,3040 nM
same,GI50,HOP-92 NSCLC,1420 nM
same,TGI,HOP-92 NSCLC,3000 nM
same,GI50,SNB-19 CNS,1050 nM
same,TGI,SNB-19 CNS,2490 nM
